{
  "source": "paper PMC9785542",
  "about": "“Discovery of 1-Benzhydryl-Piperazine-Based HDAC Inhibitors with Anti-Breast Cancer Activity: Synthesis, Molecular Modeling, In Vitro and In Vivo Biological Evaluation” (Pharmaceutics, 2022)",
  "key": {"[1]": {"system": "intersegmental blood vessels (ISVs) of Tg(fli1:EGFP) zebrafish embryos", "experiment": "Anti-angiogenic activity in Tg(fli1:EGFP) zebrafish embryos", "assay_type": "in vivo", "description": "The inhibitory activity of 8b on angiogenesis was examined using embryos of the transgenic zebrafish Tg(fli1:EGFP) line with GFP-labeled endothelial cells, as previously described. Briefly, embryos at the 6–8 hpf stage were exposed to three non-toxic concentrations and incubated at 28 °C by 48 hpf. At 48 hpf, the treated embryos were anesthetized with 0.02% tricaine, imaged under a fluorescence microscope (Olympus BX51, Applied Imaging Corp., San Jose, CA, USA), and analyzed for the development of intersegmental blood vessels (ISVs). The experiment was performed three times using ten embryos per concentration. ISV lengths were measured using ImageJ program, and expressed as mean value with standard deviation. Inhibitory effect of the applied treatment was determined in relation to the control (DMSO-treated) group, arbitrarily set to 100%."}, "[2]": {"system": "MDA-MB-231 xenografts in Tg(fli1:EGFP) zebrafish embryos", "experiment": "Zebrafish MDA-MB-231 xenograft model", "assay_type": "in vivo", "details": "for reduction of tumor mass vs untreated control: 3 days post injection", "description": "The human breast carcinoma MDA-MB 231 cell line was cultured in DMEM:Ham’s 12 (1:1) medium (Sigma-Aldrich, St. Louis, MO, USA) supplemented with 10% FBS (Sigma-Aldrich, St. Louis, MO, USA), 100 µg/mL streptomycin, and 100 U/mL penicillin (Sigma-Aldrich, St. Louis, MO, USA), and grown as a monolayer in humidified atmosphere of 95% air and 5% CO2 at 37 °C. Prior to microinjection, the cells were washed once with PBS and trypsinized (0.25% trypsin/0.53 mM EDTA) (Sigma-Aldrich, St. Louis, MO, USA) to obtain a single-cell suspension. After centrifugation at 1200 rpm for 5 min, the cells were resuspended in serum-free DMEM medium and labeled with 2 µM Cell Tracker TM Red CMTPX (Thermo Fisher Scientific) according to the manufacturer’s instructions.\nThe zebrafish xenografts with human MDA-MB-231 cells were established according to the previously described procedure with slight modification. A day before the microinjections, Tg(fli1:EGFP) embryos kept at 28 °C were manually dechorionated. At the 48 hpf stage, 5 nL of MDA-MB 231 cell suspension containing 150 labeled cells was microinjected into the yolk of anesthetized embryos by a pneumatic picopump (PV820, World Precision Instruments, Sarasota, FL, USA). The exact number of cells was confirmed by dispensing the injected volume onto a microscope slide and by visual counting. After injection, embryos were incubated, to recover, for at least for 60 min at 28 °C, dead embryos were removed, while alive embryos were transferred into 24-well plates containing 1 mL of E3 water and 10 embryos per well. The injected xenografts were treated with the three doses of 8b (3.13, 6.25, and 12.5 µM), and maintained at 31–32 °C by 120 hpf. DMSO (0.25%) was used as a negative control. The survival and development of the xenografted embryos was recorded every day until the end of experiment (3 days post injection = 3 dpi), at which point, anesthetized xenografts were processed by fluorescent microscopy. The tumor size, number of xenografts with disseminated tumor cells in the caudal region, and number of disseminated cells per embryo were determined. The tumor size was determined by the fluorescent images using ImageJ. The experiment was repeated two times using 10 embryos per concentration."}},
  "data": [
    {"molecule": "O=C(CCCCCCCN1CCN(C(c2ccccc2)c2ccccc2)CC1)NO", "note": "[Compound 8b, 8-(4-(diphenylmethyl)-piperazin-1-yl)-N-hydroxyoctanamide]", "values": [
      {"measurement": "embryos affected in terms of ISV growth (anti-angiogenic phenotype)", "setting": "[1]; 6.25 µM, 48 hpf", "result": "~ 60%"},
      {"measurement": "toxic response in embryos at anti-angiogenic effective doses", "setting": "[1]; 8b 6.25-50 µM, Suten effective dose 1.56 µM", "result": "did not elicit any toxic response"},
      {"measurement": "ISV inhibition", "setting": "[1]; 25 and 50 µM, 48 hpf", "result": "majority of ISVs were inhibited"},
      {"measurement": "number of metastasis per embryo, fold lower than untreated", "setting": "[2]; 3.13 µM, 3-day treatment", "result": "up to 9.6 fold"},
      {"measurement": "reduction of number of embryos exhibiting metastases", "setting": "[2]; 3.13 µM, 3-day treatment", "result": 50, "unit": "%"},
      {"measurement": "reduction of tumor mass vs untreated control", "setting": "[2]; 3.13 µM", "result": "56.1 ± 5.2", "unit": "%"},
      {"measurement": "dissemination of MDA-MB-231 cells", "setting": "[2]; 12.5 µM", "result": "completely inhibited"},
      {"measurement": "reduction of tumor mass vs untreated control", "setting": "[2]; 12.5 µM", "result": "almost complete reduction"},
      {"measurement": "ED50 (effective drug concentration reducing tumor mass by 50% in relation to the control)", "setting": "[2]; 3-day treatment", "result": 2670, "unit": "nM"},
      {"measurement": "toxic side effects in xenografts", "setting": "[2]; 3.13, 6.25 and 12.5 µM, 3-day treatment", "result": "no toxic side effects were observed"}
    ]}
  ]
}
